Values after ≈ are worked out from the molar mass of the structure shown. Like-named read-outs stand apart in the source and are kept apart here.
Assays:
Type in all cases: cell-based
[1] = system: Escherichia coli NIHJ; experiment: MIC against Escherichia coli NIHJ
Text: (§1) Below are described the antibacterial activities of the compounds in the compositions according to this invention.
(§2) The testing method complied with the standard method of Japan Sociaty of Chemotherapy.

[2] = system: Staphylococcus aureus FDA 209P; experiment: MIC against Staphylococcus aureus FDA 209P
Text: as §1, §2

[3] = system: Desulfovibrio desulfuricans IFO 13699; experiment: MIC against Desulfovibrio desulfuricans
Text: as §1, §2

[4] = Escherichia coli, Table 1, azaalkenelactams, heart infusion agar, 37° C., 24 hours, read-out: MIC
[5] = Staphylococcus aureus, FDA209P, Table 1, azaalkenelactams, heart infusion agar, 37° C., 24 hours, read-out: MIC
[6] = Desulfovibrio desulfuricans, IFO13699, 24 h
[7] = Staphylococcus aureus, FDA209P, 24 h
[8] = Table 1, azaalkenelactams, heart infusion agar, 37° C., 24 hours
[9] = Desulfovibrio desulfuricans, IFO13699, Table 1, azaalkenelactams, heart infusion agar, 37° C., 24 hours, read-out: MIC

| Compound | MIC [1, 4] | MIC [3, 6] | MIC [2, 7] | MIC ([1]; Escherichia coli, 24 h) | also measured |
| --- | --- | --- | --- | --- | --- |
| CCCCCCCCCCCCN1CCN=C(C)CC1=O [Example 1, 4-dodecyl-7-methyl-3,6-dihydro-2H-1,4-diazepin-5-one] | 1600 µg/mL (≈ 5430 µM) | 6.25 µg/mL (≈ 21.2 µM) |  |  | MIC [2, 5]: 50 µg/mL (≈ 170 µM) |
| CCCCCCCCCCCCN1CCCN=C(C)CC1=O [Example 3, 1-dodecyl-4-methyl-3,6,7,8-tetrahydro-1,5-diazocin-2-one] | 1600 µg/mL (≈ 5190 µM) | 6.25 µg/mL (≈ 20.3 µM) | 50 µg/mL (≈ 162 µM) |  |  |
| CCCCCCCCC=CCCCCCCCCN1CCCN=C(C)CC1=O [Example 4, 1-(9-octadecenyl)-4-methyl-3,6,7,8-tetrahydro-1,5-diazocin-2-one] | 800 µg/mL (≈ 2050 µM) | 12.5 µg/mL (≈ 32 µM) | 25 µg/mL (≈ 64 µM) |  |  |
| CCCCCCCCCCCCCCCCN1CCN=C(C)CC1=O [Example 5, 4-hexadecyl-7-methyl-3,6-dihydro-2H-1,4-diazepin-5-one] | 3200 µg/mL (≈ 9130 µM) | 6.25 µg/mL (≈ 17.8 µM) | 12.5 µg/mL (≈ 35.7 µM) |  |  |
| CCCCCCCCCCCCOCCNCCN1CCN=C(C)CC1=O [Example 6, 4-dodecoxyethylaminoethyl-7-methyl-3,6-dihydro-2H-1,4-diazepin-5-one] |  | 25 µg/mL (≈ 65.5 µM) | 12.5 µg/mL (≈ 32.8 µM) | 50 µg/mL (≈ 131 µM) |  |
| CCCCCCCCCc1ccc(OCCOCCN2CCCN=C(C)CC2=O)cc1 [Example 7, 1-nonylphenylpoly(2 moles)oxyethyleneoxyethyl-4-methyl-3,6,7,8-tetrahydro-1,5-diazocin-2-one] |  | 12.5 µg/mL (≈ 29 µM) | 12.5 µg/mL (≈ 29 µM) | 200 µg/mL (≈ 464 µM) |  |
| CCCCCCCCOCCCN1CCN=C(C)CC1=O [Example 8, 4-octoxypropyl-7-methyl-3,6-dihydro-2H-1,4-diazepin-5-one] | 800 µg/mL (≈ 2700 µM) | 50 µg/mL (≈ 169 µM) | 50 µg/mL (≈ 169 µM) |  |  |
| CCCCCCCC/C=C\CCCCCCCC(=O)NCCN1CCN=C(C)CC1=O [Example 10, 4-oleamidoethyl-7-methyl-3,6-dihydro-2H-1,4-diazepin-5-one] | 1600 µg/mL (≈ 3690 µM) | 6.25 µg/mL (≈ 14.4 µM) | 50 µg/mL (≈ 115 µM) |  |  |
| CC1=NCCN(CCNC(=O)CCCCCCCCCCCCCCC(C)C)C(=O)C1 [Example 11, 4-isostearamidoethyl-7-methyl-3,6-dihydro-2H-1,4-diazepin-5-one] | 1600 µg/mL (≈ 3670 µM) | 6.25 µg/mL (≈ 14.3 µM) | 100 µg/mL (≈ 230 µM) |  |  |
| CCCCCCCCCCCC(=O)OCCN1CCN=C(C)CC1=O [Example 12, 4-lauroyloxyethyl-7-methyl-3,6-dihydro-2H-1,4-diazepin-5-one] | 1600 µg/mL (≈ 4540 µM) | 12.5 µg/mL (≈ 35.5 µM) | 100 µg/mL (≈ 284 µM) |  |  |
| CCCCCCCC/C=C\CCCCCCCC(=O)OCCN1CCN=C(C)CC1=O [Example 13, 4-oleoyloxyethyl-7-methyl-3,6-dihydro-2H-1,4-diazepin-5-one] | 1600 µg/mL (≈ 3680 µM) | 12.5 µg/mL (≈ 28.8 µM) | 100 µg/mL (≈ 230 µM) |  |  |
| CCCCCCCCCCCC(=O)OCCN1CCCN=C(C)CC1=O [Example 14, 1-lauroyloxyethyl-4-methyl-3,6,7,8-tetrahydro-1,5-diazocin-2-one] | 1600 µg/mL (≈ 4370 µM) | 12.5 µg/mL (≈ 34.1 µM) |  |  | MIC [2, 5]: 100 µg/mL (≈ 273 µM) |
| CCCCCCCCc1ccc(OCCOC(C)COC(C)CN2CCN=C(C)CC2=O)cc1 (stereo not drawn) [Example 19] |  | 25 µg/mL (≈ 52.7 µM) | 50 µg/mL (≈ 105 µM) | 400 µg/mL (≈ 843 µM) |  |
| CCCCCCC(O)CC=CCCCCCCCC(=O)OC(C)CN1CCCN=C(C)CC1=O (stereo not drawn) [Example 21] | 800 µg/mL (≈ 1670 µM) | 25 µg/mL (≈ 52.2 µM) | 50 µg/mL (≈ 104 µM) |  |  |
| CCCCCCCCCCCCCCCCCCCCCCNCCN1CCN=C(C)CC1=O [Example 22, 4-docosylaminoethyl-7-methyl-3,6-dihydro-2H-1,4-diazepin-5-one] | 800 µg/mL (≈ 1670 µM) | 12.5 µg/mL (≈ 26.2 µM) | 25 µg/mL (≈ 52.3 µM) |  |  |
| CCCCCCCC(=O)NCCN1CCN=C(C)CC1=O [Example 23, 4-octamidoethyl-7-methyl-3,6-dihydro-2H-1,4-diazepin-5-one] |  | 50 µg/mL (≈ 169 µM) | 25 µg/mL (≈ 84.6 µM) | 25 µg/mL (≈ 84.6 µM) |  |
| CCCCCCCC(=O)OCCN1CCN=C(C)CC1=O [Example 24, 4-octoyloxyethyl-7-methyl-3,6-dihydro-2H-1,4-diazepin-5-one] | 800 µg/mL (≈ 2700 µM) | 25 µg/mL (≈ 84.3 µM) | 200 µg/mL (≈ 675 µM) |  |  |
| CCCCCCCCCCCCCCCCCCCCCC(=O)OCCCN1CCCN=C(C)CC1=O [Example 25, 1-behenoyloxypropyl-4-methyl-3,6,7,8-tetrahydro-1,5-diazocin-2-one] |  |  |  |  | MIC [1, 8]: 1600 µg/mL (≈ 3070 µM); MIC [2]: 200 µg/mL (≈ 384 µM); MIC [3]: 50 µg/mL (≈ 96 µM) |
| CCCCCCCCCCC(O)CN1CCN=C(C)CC1=O (stereo not drawn) [Example 26, 4-(2-hydroxy)dodecyl-7-methyl-3,6-dihydro-2H-1,4-diazepin-5-one] |  | 12.5 µg/mL (≈ 40.3 µM) | 50 µg/mL (≈ 161 µM) | 50 µg/mL (≈ 161 µM) |  |
| CCCCCCCCCCCCC(O)CN1CCCN=C(C)CC1=O (stereo not drawn) [Example 27, 1-(2-hydroxy)tetradecyl-4-methyl-3,6,7,8-tetrahydro-1,5-diazocin-2-one] |  |  | 12.5 µg/mL (≈ 35.5 µM) | 25 µg/mL (≈ 70.9 µM) | MIC [3, 9]: 6.25 µg/mL (≈ 17.7 µM) |

| Compound | MIC [1, 4] | MIC [3, 6] | MIC [2, 7] | MIC ([1]; Escherichia coli, 24 h) | also measured |
| --- | --- | --- | --- | --- | --- |
| CCCCCCCCCCCCC(O)CNCCN1CCN=C(C)CC1=O (stereo not drawn) [Example 28, 4-(2-hydroxytetradecyl)aminoethyl-7-methyl-3,6-dihydro-2H-1,4-diazepin-5-one] |  |  | 25 µg/mL (≈ 65.5 µM) | 25 µg/mL (≈ 65.5 µM) | MIC [3, 9]: 12.5 µg/mL (≈ 32.8 µM) |
| CCCCCCCCCCCCCCCCCCCCC(O)CNCCNCCN1CCCN=C(C)CC1=O (stereo not drawn) [Example 30, 1-(2-hydroxy)docosylaminoethylaminoethyl-4-methyl-3,6,7,8-tetrahydro-1,5-diazocin-2-one] |  |  | 12.5 µg/mL (≈ 22.7 µM) | 25 µg/mL (≈ 45.4 µM) | MIC [3, 9]: 3.12 µg/mL (≈ 5.66 µM) |
| CCCCCCCCCc1ccc(OCC(O)CNCCNCCNCCN2CCN=C(C)CC2=O)cc1 (stereo not drawn) [Example 32, 4-nonylphenoxy(2-hydroxy)propylaminoethylaminoethylaminoethyl-7-methyl-3,6-dihydro-2H-1,4-diazepin-5-one] | 800 µg/mL (≈ 1500 µM) | 25 µg/mL (≈ 47 µM) | 200 µg/mL (≈ 376 µM) |  |  |
| CCCCCCCCCCCCOCC(O)CN1CCCN=C(C)CC1=O (stereo not drawn) [Example 33, 1-docoxy(2-hydroxy)propyl-4-methyl-3,6,7,8-tetrahydro-1,5-diazocin-2-one] |  | 25 µg/mL (≈ 65.3 µM) | 25 µg/mL (≈ 65.3 µM) | 400 µg/mL (≈ 1050 µM) |  |
| CCCCCCCCCCCCNCCCN1CCCN=C(C)CC1=O [Example 36, 1-dodecylaminopropyl-4-methyl-3,6,7,8-tetrahydro-1,5-diazocin-2-one] |  | 25 µg/mL (≈ 68.4 µM) | 12.5 µg/mL (≈ 34.2 µM) | 50 µg/mL (≈ 137 µM) |  |
| CCCCCCCCCCCCCCCCCCNCCCN1CCCN=C(C)CC1=O [Example 37, 1-octadecylaminopropyl-4-methyl-3,6,7,8-tetrahydro-1,5-diazocin-2-one] |  |  |  |  | MIC [1]: 25 µg/mL (≈ 55.6 µM); MIC [2]: 6.25 µg/mL (≈ 13.9 µM); MIC [3]: 6.25 µg/mL (≈ 13.9 µM) |
| CCCCCCCCCCCCNCCNCCNCCCN1CCCN=C(C)CC1=O [Example 38, 1-dodecylaminoethylaminoethylaminopropyl-4-methyl-3,6,7,8-tetrahydro-1,5-diazocin-2-one] |  | 25 µg/mL (≈ 55.3 µM) | 12.5 µg/mL (≈ 27.7 µM) | 50 µg/mL (≈ 111 µM) |  |
| CC1=NCCN(CC(C)OCC(C)OCC(C)OCc2ccc(C)cc2)C(=O)C1 (stereo not drawn) [Example 39, 4-methylbenzylpoly(2moles)oxypropyleneoxypropyl-7-methyl-3,6-dihydro-2H-1,4-diazepin-5-one] |  | 50 µg/mL (≈ 124 µM) | 25 µg/mL (≈ 61.8 µM) | 200 µg/mL (≈ 494 µM) |  |
| CCCCCCCCCCCCN1CCN=CC(C)C1=O (stereo not drawn) [Example 42, 4-dodecyl-6-methyl-3,6-dihydro-2H-1,4-diazepin-5-one] |  | 6.25 µg/mL (≈ 21.2 µM) | 12.5 µg/mL (≈ 42.4 µM) | 400 µg/mL (≈ 1360 µM) |  |
| CCCCCCCCCCC(O)CN1CCN=CC(C)C1=O (stereo not drawn) [Example 43, 4-(2-hydroxy)dodecyl-6-methyl-3,6-dihydro-2H-1,4-diazepin-5-one] |  | 12.5 µg/mL (≈ 40.3 µM) | 12.5 µg/mL (≈ 40.3 µM) | 400 µg/mL (≈ 1290 µM) |  |
| CCCCCCCCCCCCN1CCCN=CC(C)C1=O (stereo not drawn) [Example 44, 1-dodecyl-3-methyl-3,6,7,8-tetrahydro-1,5-diazocin-2-one] | 800 µg/mL (≈ 2590 µM) | 25 µg/mL (≈ 81 µM) | 50 µg/mL (≈ 162 µM) |  |  |
| CCCCCCCCCCC(O)CN1CCCN=CC(C)C1=O (stereo not drawn) [Example 45, 1-(2-hydroxy)dodecyl-3-methyl-3,6,7,8-tetrahydro-1,5-diazocin-2-one] |  |  |  |  | MIC [1, 8]: 800 µg/mL (≈ 2470 µM); MIC [2, 8]: 100 µg/mL (≈ 308 µM); MIC [3, 8]: 50 µg/mL (≈ 154 µM) |
| CCCCCCCCCCCC(=O)NCCN1CCN=CC(C)C1=O (stereo not drawn) [Example 46, 4-lauramidoethyl-6-methyl-3,6-dihydro-2H-1,4-diazepin-5-one] |  | 6.25 µg/mL (≈ 17.8 µM) | 6.25 µg/mL (≈ 17.8 µM) | 25 µg/mL (≈ 71.1 µM) |  |
| CCCCCCCCCCCC(=O)OCCN1CCN=CC(C)C1=O (stereo not drawn) [Example 47, 4-lauroyloxyethyl-6-methyl-3,6-dihydro-2H-1,4-diazepin-5-one] | 200 µg/mL (≈ 567 µM) |  |  |  | MIC [2, 5]: 50 µg/mL (≈ 142 µM); MIC [3, 9]: 50 µg/mL (≈ 142 µM) |
| CCCCCCCCCCCCCCCCCCCCCC(=O)OCCCN1CCCN=CC(C)C1=O (stereo not drawn) [Example 51, 1-behenoyloxypropyl-3-methyl-3,6,7,8-tetrahydro-1,5-diazocin-2-one] |  |  |  |  | MIC [1, 8]: 100 µg/mL (≈ 192 µM); MIC [2, 8]: 25 µg/mL (≈ 48 µM); MIC [3]: 12.5 µg/mL (≈ 24 µM) |
| CCCCCCCCCc1ccc(OCC(O)CNCCNCCNCCN2CCN=CC(C)C2=O)cc1 (stereo not drawn) [Example 52, 4-nonylphenoxy(2-hydroxy)propylaminoethylaminoethylaminoethyl-6-methyl-3,6-dihydro-2H-1,4-diazepin-5-one] | 100 µg/mL (≈ 188 µM) | 50 µg/mL (≈ 94 µM) |  |  | MIC [2, 5]: 100 µg/mL (≈ 188 µM) |
| CCCCCCCCC=CCCCCCCCCN1CCN=CCCC1=O [Example 55, 4-(9-octadecenyl)-2,3,6,7-tetrahydro-1,4-diazocin-5-one] |  | 50 µg/mL (≈ 133 µM) | 100 µg/mL (≈ 266 µM) | 200 µg/mL (≈ 531 µM) |  |
| CCCCCCCC(=O)NCCN1CCN=CCCC1=O [Example 56, 4-octamidoethyl-2,3,6,7-tetrahydro-1,4-diazocin-5-one] |  | 50 µg/mL (≈ 169 µM) | 200 µg/mL (≈ 677 µM) | 100 µg/mL (≈ 338 µM) |  |
| CCCCCCCCCCCCCCCCCCCCCC(=O)OCCN1CCN=CCCC1=O [Example 57, 4-behenoyloxyethyl-2,3,6,7-tetrahydro-1,4-diazocin-5-one] |  | 12.5 µg/mL (≈ 25.4 µM) | 100 µg/mL (≈ 203 µM) | 100 µg/mL (≈ 203 µM) |  |

From patent US4346087A, “Antibacterial surface active agent containing azaalkenelactam” (priority 1979, dated 1982)
